Laboratory results reported in patent US12721537B2, “System and method for measuring blood flow velocity on a microfluidic chip” (CASE WESTERN RESERVE UNIVERSITY, priority 2020, dated 2026).

How the values were obtained:
whole blood = conditions: sodium citrate whole blood recalcified to 100 mM CaCl2, constant inlet pressure 20 mBar, PIV
Description: The whole blood sample for this example was drawn into a 3.2% sodium citrate containing vacutainer from a single healthy donor under an Institutional review board-approved protocol. The blood sample was stored at 4° C. upon collection and was processed within 24 h. […] Prior to the experiment, the whole blood sample was recalcified with the stock solution to obtain a final concentration of 100 mM CaCl2. […] The control experiment was performed by mixing the whole blood sample with PBS. Thereafter, the mixed blood sample was immediately injected into the microfluidic channel at a constant inlet pressure of 20 mBar by means of a Flow-EZ pressure control unit (Fluigent Inc., North Chelmsford, MA), as shown in FIG. 2. The constant supply pressure implies that the flow rate is reduced as the blood coagulates. The maximum initial shear rate was approximately 10 s^−1, and the shear rate reduced to zero as the flow slowed and eventually stopped due to microchannel blockage as coagulation occurred. The microfluidic channel was placed on an inverted microscope (Olympus IX83), and a video was recorded simultaneously under 4× magnification using a high-resolution camera (EXi Blue EXI-BLU-R-F-M-14-C) at 10 frames per second as soon as the flow was started. The field of view was centered on the microfluidic channel, and one pixel in the images corresponds to 1.58 μm. […]

citrate whole blood = experiment: Thrombin-induced thrombus formation in a microchannel; format: cell-based; conditions: citrate whole blood reconstituted with 16.7 μM calcium chloride only
From the text: The influence of clotting disorders and therapies can be assessed in a case study using elevated levels of thrombin to promote coagulation. […] It is hypothesized that elevated levels of thrombin will produce distinctive, quantifiable effects on the evolution of the blood flow and the associated formation and growth of thrombi, and these experiments will allow us to assess the ability of our model to identify those effects. Additionally, the effect of heparin, a common anticoagulant therapy, on the blood flow will be evaluated by adding heparin into the blood samples at appropriate doses.

[Ca+2].[Cl-].[Cl-] [CaCl2, calcium chloride]
clotting time (dramatic drop in mean blood flow velocity) (whole blood): ~220 s | blood flow in microchannel (citrate whole blood): flows uniformly | thrombus formation in microchannel (citrate whole blood): No thrombus formation
